Data reported in patent US20240368123A1, “AROMATIC RING-CONTAINING BIOLOGICAL ANTAGONIST, AND PREPARATION METHOD THEREFOR AND USE THEREOF” (SHANGHAI HANSOH BIOMEDICAL CO., LTD., priority 2021, published 2024).

Key:
[1] = Liver microsomal metabolism stability test, human; assay type: in vitro ADME; conditions: human liver microsomes, 60 min
Experimental: (§1) The purpose of this experiment was to detect the stability of the example compounds in liver microsomes of rats, dogs and humans.
(§2) • Formulation of working solution of compounds: compound stock solution was added to phosphate buffer to a final concentration of 20 μM.
(§3) Dilution was performed with 100 mM phosphate buffer to a final concentration of 0.625 mg/mL.
(§4) NADPH (reduced nicotinamide adenine dinucleotide phosphate) and UDPGA (uridine diphosphate glucuronic acid) were weighed, 100 mM phosphate buffer was added, and the final concentration was 20 mM.
(§5) 1 mg of Alamethicin was weighed, and 200 μL of DMSO was added to formulate a 5 mg/mL solution. Then dilution was performed with phosphate buffer to a final concentration of 50 μg/mL.
(§6) Stop solution: the stop solution contains 100 ng/mL labetalol hydrochloride and 400 ng/mL tolbutamide and cold acetonitrile as internal standard.
(§7) 400 μL of formulated liver microsomes, 25 μL of compound working solution and 25 μL of Alamethicin were added in sequence to the 96-well plate, and pre-incubated at 37° C. for 10 min. Then 50 μL of formulated NADPH/UDPGA was added to start the reaction and the mixture was incubated at 37° C. The total volume of the reaction system was 500 μL. The final contents of each component are as follows:
(§8) • Instrument: Shimadzu LC-30 AD; • Chromatographic column: XBridge® C18 (50*4.6 mm, 5 μm particle size); • Mobile phase: A: 0.1% formic acid solution, B: methanol Wash gradient: 0.2-1.6 min 5% A to 95% A, 3.0-3.1 min 95% A to 5% A Run time: 4.0 min.
(§9) • Instrument: API5500 liquid chromatography mass spectrometer, AB Sciex; • Ion source: electrospray ionization source (ESI); • Drying gas: N2, temperature 500° C.; • Electrospray voltage: 5000 V; • Detection mode: positive ion detection; • Scanning mode: reaction monitoring (MRM) mode.

[2] = Liver microsomal metabolism stability test, dog; assay type: in vitro ADME; conditions: dog liver microsomes, 60 min
Experimental: as §1, §2, §3, §4, §5, §6, §7, §8, §9

[3] = test system: spontaneously hypertensive rat (SHR) model; experiment: Pharmacodynamic evaluation on blood pressure in spontaneously hypertensive rats; assay type: in vivo; conditions: P.O, 30 mpk, 1-8 h after administration, P<0.05
From the text: This experiment used a spontaneously hypertensive rat (SHR) model to evaluate the pharmacodynamic effect of the test compounds on the blood pressure and heart rate of the model.
Kent Scientific CODA non-invasive blood pressure system.
Spontaneously hypertensive rats (SHR) were provided by Beijing Vital River Laboratory Animal Technology Co., Ltd., male, 150-200 g, 13-15 weeks old, 50 rats.
After animals arrived at the experimental facility, the animals were adapted to the animal facility for 5-7 days. 4.2 After the adaptation period, the animals were adapted to the tail oversleeve restrain for 3 days, and the tail oversleeve restrain was performed twice a day. After the last restrain adaptation, the basal blood pressure was measured, and the animals were randomly divided into groups according to the basal blood pressure. There was no significant difference between the average systolic blood pressure of animals in each group, and the number of animals in each group met the requirements of statistical testing and pharmacodynamic guidelines. 4.3 On the second day after grouping, the animals were administered according to experimental design and grouping (P.O, 5 mL/kg), and the systolic blood pressure (SBP), diastolic blood pressure (DBP), mean arterial pressure (MAP) and heart rate (HR) of the animals were measured before administration and at 1, 2, 4, 6, 8 and 24 h after administration using tail oversleeve method.
Statistical differences between groups were analyzed by Two-way ANOVA test. Among them, P<0.05 indicated a significant difference, and P<0.01 indicated an extremely significant difference.

[4] = Liver microsomal metabolism stability test, rat; assay type: in vitro ADME; conditions: rat liver microsomes, 60 min
Experimental: as §1, §2, §3, §4, §5, §6, §7, §8, §9

In the case of [2H]C([2H])(c1ccc(-c2ccccc2S(=O)(=O)Nc2noc(C)c2Cl)c(COCC)c1)N1C(=O)C2(CCCC2)N=C1CCCC [Example 44, 4′-((2-butyl-4-oxo-1,3-diazaspiro[4.4]non-1-en-3-yl)methyl-d2)-N-(4-chloro-5-methylisoxazol-3-yl)-2′-(ethoxymethyl)-[1,1′-biphenyl]-2-sulfonamide], the Remaining rate [1] is reported as 33.0%, the Remaining rate [2] is reported as 24.6% and the “blood pressure (systolic blood pressure, diastolic blood pressure, mean arterial pressure) compared with the vehicle group” value [3] is reported as “significantly reduced blood pressure”. For the same compound, the Remaining rate [4] was 29.4%.
